Series [1] is described as follows: Ulcerogenic activity in rats. The note with it: rat, in vivo, po. The procedure: SPF males of the strain Sprague-Dawley weighing 180-250 g were used. 5 hours after administration by gavage of the test substance the rats were killed by an overdose of ether. The stomachs were removed and opened along the greater curvature. The number of ulcers was assessed and compared to control rats.

A further series is described as follows: in vivo. The following applies: mouse, in vivo, po, read-out: Acute toxicity LD50. The series is classed as in vivo.
Series [2] concerns mice. As to the kind of experiment: Writhing test in mice (acetic acid induced writhing), analgesic activity. The following applies: for ED50: Mus musculus, po, 20 min, read-out: Analgesic ED50 Writhing test; for analgesic activity compared with the compounds of the present invention: statement in words, refers to the pharmacological tests of Table 1. The format is in vivo. The procedure:
Writhing test in mice. (SPF females of the strain NMRI/BOM, weighing 20-25 g). The test substance was administered by gavage ½ hour prior to an intraperitoneal injection of acetic acid. The number of writhing movements in 20 minutes was counted.
Background: An intraperitoneal irritant provokes the stretching counted in writhing tests.

For the next series, the target named is PG-synthetase. As to the kind of experiment: Prostaglandin-synthetase inhibition test. The series is classed as biochemical. The note with it: AA = Arachidonic acid.
Series [3] concerns rats. As to the kind of experiment: Test for antiinflammatory activity in rats (carrageenin paw). The format is in vivo. The following applies: Rattus norvegicus, po, read-out: Antiinflam-matory test ED50. The procedure:
SPF males of the strain Sprague-Dawley, weighing ~ 150 g were used. The test was performed according to Winter et al.: Proc. Soc. […] The test substance was given by gavage 1 hour prior to injection of a carrageenin-suspension into the rat paw.

Series [4] deals with rats. In words: Randall-Selitto test in rats (analgesia-meter, brewer's yeast paw), analgesic activity. The following applies: Rattus norvegicus, po, read-out: Analgesic ED50 Analgesia-meter. The format is in vivo. How it is done:
2. Randall-Selitto test in rats. (SPF males of the strain Sprague-Dawley, weighing 90-100 g). The test was performed on the whole as described by Randall and Selitto: Arch. Int. Pharmacodyn. […] An analgesia-meter of the make Ugo Basile was used and the test substance was administered by gavage 2 hours after injection of a suspension of brewer's yeast into the rat paw.

The subject of series [5] is mice. In words: in vivo. The format is in vivo. The note with it: statement in words, refers to the pharmacological data of Table 1.
Where [6] appears, read: rats, by gavage, stomachs examined 5 hours after administration, read-out: Ulcerogenic activity ED50.
The mark [7] stands for this setting: mice, by gavage, observation period 168 hours.
The mark [8] stands for this setting: mice, by gavage ½ hour prior to intraperitoneal acetic acid, writhing movements in 20 minutes.
Where [9] appears, read: rats, by gavage 2 hours after brewer's yeast injection into the paw.
[10] abbreviates: rats, by gavage 1 hour prior to carrageenin injection into the paw.

Where two headings read alike, the source gives them in different places.

`CC(=O)Oc1ccccc1C(=O)O` [Compound 15, Acetyl salicylic acid, reference compound]: the TD50 at 5 h in series [1] (setting [6]) turned out to be 340 mg/kg. The LD50 (commonly the dose at which mortality reaches 50%) at 168 h in the series “in vivo” (setting [7]) worked out at 1700 mg/kg. In addition, the ED50 (as a rule, the dose that gives a 50% effect, or the effect in half of the subjects) with mice [2] was 100 mg/kg; in the series on rats [3], 350 mg/kg. Moreover, the “Inhibition of PG-synthetase IC50” value on PG-synthetase is on record as 7,61 µg/10 µg AA.
In the case of `COc1ccc(-c2nc(-c3ccc(F)cc3)[nH]c2-c2ccc(OC)cc2)cc1` [Compound 4, 2-(p-Fluorphenyl)-4,5-bis(p-methoxyphenyl)imidazole], the TD50 at 5 h in series [1] stood at 360 mg/kg. Further, in “in vivo”, the LD50 at 168 h was 1900 mg/kg. The ED50 came to 5 mg/kg in the series with mice [2] (setting [8]), 0.3 mg/kg in the series with rats [4] (setting [9]) and 14 mg/kg in the series with rats [3] (setting [10]). At PG-synthetase, the “Inhibition of PG-synthetase IC50” value is reported as 0,18 µg/10 µg AA.
The compound `COc1ccc(-c2nc(-c3cc(F)cc(F)c3)[nH]c2-c2ccc(OC)cc2)cc1` [Compound 10, 2-(3,5-Difluorphenyl)-4,5-bis(p-methoxyphenyl)imidazole] showed a TD50 at 5 h in series [1] of 780 mg/kg. For the same compound, the ED50 in the series on mice [2] (setting [8]) was 10 mg/kg; with rats [4] (setting [9]), 0.45 mg/kg; in the series on rats [3] (setting [10]) it was 150 mg/kg.
In series [1], `COc1ccc(-c2nc(-c3c(F)cccc3F)[nH]c2-c2ccc(OC)cc2)cc1` [Compound 8, 2-(2,6-Difluorphenyl)-4,5-bis(p-methoxyphenyl)imidazole] gave a TD50 at 5 h greater than 300 mg/kg. The LD50 at 168 h in the series “in vivo” was greater than 2000 mg/kg. The ED50 in the series with mice [2] (setting [8]) worked out at 6.8 mg/kg; with rats [4] (setting [9]) it was 0.55 mg/kg; in the series with rats [3] (setting [10]), 300 mg/kg. Also, the “Inhibition of PG-synthetase IC50” value at PG-synthetase was 0,13 µg/10 µg AA.
Compound `COc1ccc(-c2nc(-c3cccc(F)c3)[nH]c2-c2ccc(OC)cc2)cc1` [Compound 3, 2-(m-Fluorphenyl)-4,5-bis(p-methoxyphenyl)imidazole] registered a TD50 at 5 h in series [1] of 870 mg/kg. Besides, in the series “in vivo”, the LD50 at 168 h was greater than 2000 mg/kg. Further, the results for the ED50 in the series with mice [2] (setting [8]), in the series with rats [4] (setting [9]) and with rats [3] (setting [10]) were 3.2 mg/kg, 0.25 mg/kg and 38 mg/kg, respectively.
`COc1ccc2c(c1)c(CC(=O)O)c(C)n2C(=O)c1ccc(Cl)cc1` [Compound 13, Indomethacin, reference compound]: the TD50 at 5 h in series [1] (setting [6]) was found to be 9.7 mg/kg. In addition, the LD50 at 168 h in “in vivo” (setting [7]) was 21 mg/kg. Further, the ED50 came out at 8 mg/kg with mice [2], 0.36 mg/kg in the series with rats [4] (2 h) and 28 mg/kg in the series with rats [3]. Also, the “Inhibition of PG-synthetase IC50” value at PG-synthetase is listed as 0,65 µg/10 µg AA.
Take `COc1ccc(-c2nc(-c3ccc(F)c(F)c3)[nH]c2-c2ccc(OC)cc2)cc1` [Compound 9, 2-(3,4-Difluorphenyl)-4,5-bis(p-methoxyphenyl)imidazole]: in the series “in vivo” (setting [7]), the LD50 at 168 h was greater than 2000 mg/kg. Besides, the ED50 turned out to be 1.9 mg/kg with mice [2] (setting [8]) and 15 mg/kg in the series on rats [3] (setting [10]).
In the case of `COc1ccc(-c2nc(-c3ccc(F)cc3)n(CCC(=O)O)c2-c2ccc(OC)cc2)cc1` [Compound 1, 1-(2-Carboxyethyl)-2-(p-fluorphenyl)-4,5-bis(p-methoxyphenyl)imidazole, reference compound], the median lethal dose (LD50) at 168 h in the series “in vivo” (setting [7]) is greater than 2000 mg/kg. For the same compound, the ED50 in the series with mice [2] (setting [8]) was greater than 200 mg/kg.
`COc1ccc(-c2nc(-c3cccc(F)c3F)[nH]c2-c2ccc(OC)cc2)cc1` [Compound 5, 2-(2,3-Difluorphenyl)-4,5-bis(p-methoxyphenyl) imidazole]: the TD50 at 5 h in series [1] was found to be 800 mg/kg. Further, the LD50 at 168 h in “in vivo” was greater than 2000 mg/kg. Also, the ED50 was found to be 4.6 mg/kg in the series with mice [2] (setting [8]), 0.55 mg/kg in the series with rats [4] (setting [9]) and 120 mg/kg in the series with rats [3] (setting [10]). On PG-synthetase, the “Inhibition of PG-synthetase IC50” value was 0,21 µg/10 µg AA.
For the compound `COc1ccc(-c2nc(-c3cc(F)ccc3F)[nH]c2-c2ccc(OC)cc2)cc1` [Compound 7, 2-(2,5-Difluorphenyl)-4,5-bis(p-methoxyphenyl)imidazole], the TD50 at 5 h in series [1] is 1000 mg/kg. For the same compound, in “in vivo”, the LD50 at 168 h is greater than 2000 mg/kg. Moreover, the ED50 was found to be 16 mg/kg in the series on mice [2] (setting [8]), 0.55 mg/kg with rats [4] (setting [9]) and 110 mg/kg with rats [3] (setting [10]). For the same compound, the “Inhibition of PG-synthetase IC50” value on PG-synthetase is given as 1,71 µg/10 µg AA.
Consider `COc1ccc2cc([C@H](C)C(=O)O)ccc2c1` [Compound 14, Naproxen, reference compound], for which, in series [1] (setting [6]), the TD50 at 5 h turned out to be 19.5 mg/kg. Also, the ED50 in the series with rats [4] (setting [9]) is 1.6 mg/kg; in the series with rats [3] (setting [10]), 10 mg/kg. Further, the “Inhibition of PG-synthetase IC50” value on PG-synthetase is 0,49 µg/10 µg AA.
Turning to `COc1ccc(-c2nc(C(F)(F)F)[nH]c2-c2ccc(OC)cc2)cc1` [Compound 11, 2-Trifluormethyl-4,5-bis(p-methoxyphenyl)imidazole, reference compound], the TD50 at 5 h in series [1] amounted to 450 mg/kg. In addition, in the series with mice [5], the “toxicity compared with the compounds of the present invention” value is “higher toxicity”. Moreover, the ED50 in the series on mice [2] (setting [8]) was 75 mg/kg; with rats [3] (setting [10]), 25 mg/kg. In the series on mice [2], the “analgesic activity compared with the compounds of the present invention” value was “weaker analgesic activity”.
Turning to `COc1ccc(-c2nc(-c3ccccc3F)[nH]c2-c2ccc(OC)cc2)cc1` [Compound 2, 2-(o-Fluorphenyl)-4,5-bis(p-methoxyphenyl)imidazole], the TD50 at 5 h in series [1] was found to be 590 mg/kg. For the same compound, the median lethal dose (LD50) at 168 h in the series “in vivo” is greater than 2000 mg/kg. The results for the ED50 with mice [2] (setting [8]), with rats [4] (setting [9]) and in the series on rats [3] (setting [10]) were 15 mg/kg, 0.3 mg/kg and 130 mg/kg, respectively.
`COc1ccc(-c2nc(C(C)C)[nH]c2-c2ccc(OC)cc2)cc1` [Compound 12, 2-Isopropyl-4,5-bis(p-methoxyphenyl)imidazole, reference compound]: the LD50 at 168 h in the series “in vivo” (setting [7]) was greater than 2000 mg/kg. Also, in the series on mice [2] (setting [8]), the ED50 turned out to be 200 mg/kg. Further, the “analgesic activity compared with the compounds of the present invention” value with mice [2] is given as “much weaker analgesic activity”.
For `COc1ccc(-c2nc(-c3ccc(F)cc3F)[nH]c2-c2ccc(OC)cc2)cc1` [Compound 6, 2-(2,4-Difluorphenyl)-4,5-bis(p-methoxyphenyl)imidazole], the TD50 at 5 h in series [1] is greater than 300 mg/kg. For the same compound, the LD50 at 168 h in the series “in vivo” is greater than 2000 mg/kg. Besides, the ED50 in the series on mice [2] (setting [8]) was determined as 4 mg/kg; with rats [4] (setting [9]) it was 0.8 mg/kg; in the series with rats [3] (setting [10]), 47 mg/kg. Moreover, the “Inhibition of PG-synthetase IC50” value on PG-synthetase is 0,27 µg/10 µg AA.

The record behind these values is EP0005219A1, “Arylimidazoles, their synthesis and pharmaceutical or veterinary preparations containing them” (A/S Dumex (Dumex Ltd.), priority 1978, dated 1979).
